Assay results taken from patent US8304452B2, “Radical scavenger and active oxygen eliminating agent” (InBiotex Inc., priority 2005, dated 2012).

How the values were obtained:
[1] = Superoxide anion-scavenging activity, xanthine/xanthine oxidase, lucigenin chemiluminescence (Example 3); assay type: biochemical; conditions: for Radical-scavenging ratio (%) (superoxide anion-scavenging activity): chemiluminescence AUC over 10 minutes, control = 100, mean, n=2
Protocol: In a 50 mM carbonate buffer (pH 10) containing 200 μM lucigenin, 100 μM xanthine and 1 mU/mL xanthine oxidase reacted together. The chemiluminescence level depending on the generated superoxide anion (O^2−) was assayed with BIOLUMAT (under trade name) (Model type LB 9505, manufactured by EG&G BERTHORD Company) for 10 minutes. The area under the curve indicating the total chemiluminescence over the 10 minutes was calculated. Defining the area under the curve for a group (control) added with PBS(−) instead of the test substance solution at the same amount as that of the solution as 100, the effect of N-β-alanyl-5-S-glutathionyl-3,4-dihydroxyphenylalanine (5-S-GAD) (Table 4) or Carnosine (under trade name) (Table 5) on the increase of chemiluminescence was examined. The suppressive activity thereof was defined as superoxide anion-scavenging activity (%) (mean, n=2; see Table 4, Table 5 and FIG. 3).

[2] = DPPH-scavenging action (Example 2); assay type: biochemical; conditions: for Radical-scavenging ratio (%): DPPH, ambient temperature, 5 minutes, mean, n=2
Protocol: DPPH (1,1-diphenyl-2-picrylhydrazyl) is one of nitrogen radicals and is a very stable radical, which is commercially available as a black-purple crystal (Wako Pure Chemical, Co., Ltd., etc.). N-β-Alanyl-5-S-glutathionyl-3,4-dihydroxyphenylalanine (5-S-GAD) (see Table 2) or Carnosine (under trade name) (see Table 3) was added to an ethanol solution of […] DPPH radical, for reaction at ambient temperature for 5 minutes (see the following reaction scheme). Instead of the test reagent, distilled water was added to the ethanol solution, which was used as a background. The DPPH absorbance at 517 nm was assayed, to calculate the scavenging ratio (%) of the DPPH radical according to the following equation. The scavenging ratio was defined as radical scavenger activity (mean, n=2; see Table 2, Table 3 and FIG. 2).
Radical-scavenging ratio (%)=[assay value of background (mean)−assay value of solution at each concentration]/background assay value (mean)]×100

[3] = tested on: VEGF-triggered vascularization; test: Vascularization-suppressing action, VEGF matrigel plug (Example 9); assay type: in vivo, C57BL/6 mice; conditions: 40 μM in matrigel plug containing 100 ng/mL VEGF; 6 days later; P<0.05; FIG. 9
Protocol: 5-S-GAD was added to a matrigelplug containing 100 ng/mL VEGF, for injections into female C57BL/6 mice. 6 days later, the matrigel plug was scissored out, to assay the hemoglobin content in the matrigel. The results are shown in mean±standard deviation. Testing were done by the Student's t test (*P<0.05).

[4] = Superoxide anion-scavenging activity, chemiluminescence, versus N-acetyl-L-carnosine (Example 7); assay type: biochemical; conditions: lucigenin chemiluminescence; FIG. 7
Protocol: In a 50 mM carbonate buffer (pH 10) containing 200 μM lucigenin, 100 μM xanthine and 1 mU/mL xanthine oxidase reacted together. The chemiluminescence level depending on the generated superoxide anion (O^2−) was assayed for 10 minutes. The area under the curve indicating the total chemiluminescence over the 10 minutes was calculated. A group to which PBS(−) instead of the test substance solution was added at the same amount as that of the solution, was defined as a control. In the same manner as in Example 3, the effect of 5-S-GAD or N-acetyl-L-carnosine added on the increase of chemiluminescence was examined. The suppressive activity thereof was defined as superoxide anion-scavenging activity (%) (see FIG. 7).

[5] = DPPH-scavenging activity versus TEMPOL (Example 5); assay type: biochemical; conditions: 60 μM DPPH, 1 to 1000 μM test substance, 5 minutes; FIG. 5
Protocol: 5-S-GAD or TEMPOL was added to an ethanol solution of 60 μM DPPH to a final concentration of 1 to 1000 μM, for reaction at ambient temperature for 5 minutes. Subsequently, the concentration of the DPPH radical was measured via the absorbance at 517 nm. The DPPH radical concentration in a reaction solution to which PBS(−) instead of the test substance was added, was used as a control. In the same manner as in Example 2, the scavenging ratio (%) of the DPPH radical was calculated and defined as the radical-scavenging activity (see FIG. 5).

[6] = DPPH-scavenging activity versus N-acetyl-L-carnosine (Example 6); assay type: biochemical; conditions: 60 μM DPPH, 5 minutes; FIG. 6
Protocol: 5-S-GAD or N-acetyl-L-carnosine was added to an ethanol solution of 60 μM DPPH for reaction at ambient temperature for 5 minutes. Subsequently, the concentration of the DPPH radical was measured via the absorbance at 517 nm. The DPPH radical concentration in a reaction solution to which distilled water instead of the test substance solution was added, was used as a control. In the same manner as in Example 2, the scavenging ratio (%) of the DPPH radical was calculated and defined as the radical-scavenging activity (see FIG. 6).

[7] = tested on: chicken egg chorioallantois; test: Vascularization-suppressing action, chicken egg chorioallantois (Example 10); assay type: in vivo; conditions: 10 μL in 1% methylcellulose inside ring, 37° C., 48 hours; FIG. 10
Protocol: A ring of a 3-mm diameter was placed on a chicken egg chorioallantois on day 5 after oviposition. 10 μL of the test substance diluted with 1% methylcellulose was added inside the ring. After incubation at 37° C. for 48 hours, fat emulsion was injected into the chorioallantois. A part from which the ring was displaced was photographed. Using an image analysis software (Kurabo Industries, Ltd.), the vascular area was measured.

[8] = Superoxide anion-scavenging activity, DMPO spin trapping ESR (Example 8); assay type: biochemical; conditions: FIG. 8
Protocol: In a 50 mM phosphate buffer (pH 7.8), 500 μM xanthine and 75 mU/mL xanthine oxidase reacted together. The generated superoxide anion (O^2−) was assayed with a spin trapping agent (DMPO) by the electron spin resonance method (ESR). The resulting signal intensity (I) was normalized with the signal intensity of the inner standard manganese (S). The resulting value was determined as the relative intensity (RI), for comparison between the value in case of the addition of the test substance and the value in case of the addition of PBS. The ESR was measured under the following conditions. MicroWave Powder: 8 mW; Field: 335±5 mT; Scan Time: 2 min; Mod.: 0.1 mT; Amplitude:×125-400; Time Constant: 0.03 sec.

## NCCC(=O)N[C@@H](Cc1cc(O)c(O)c(SC[C@H](NC(=O)CC[C@H](N)C(=O)O)C(=O)NCC(=O)O)c1)C(=O)O [5-S-GAD, N-β-alanyl-5-S-glutathionyl-3,4-dihydroxyphenylalanine]
[1]; 0.1 μM added
  Radical-scavenging ratio (%) (superoxide anion-scavenging activity): −0.75%
[1]; 1 μM added
  Radical-scavenging ratio (%) (superoxide anion-scavenging activity): 26.03%
[1]; 10 μM added
  Radical-scavenging ratio (%) (superoxide anion-scavenging activity): 78.28%
[1]; 100 μM added
  Radical-scavenging ratio (%) (superoxide anion-scavenging activity): 91.19%
[1]; summary of Table 4, Table 5 and FIG. 3
  action for scavenging the superoxide anion (O^2−) (in words): strong actions for scavenging the superoxide anion (O^2−)
[2]; 1 μM added
  Radical-scavenging ratio (%): 3.918%
[2]; 3 μM added
  Radical-scavenging ratio (%): 13.891%
[2]; 10 μM added
  Radical-scavenging ratio (%): 73.762%
[2]; 30 μM added
  Radical-scavenging ratio (%): 93.487%
[2]; summary of Table 2, Table 3 and FIG. 2
  action for scavenging the DPPH radical (in words): strong actions for scavenging the DPPH radical
[3]
  suppression of VEGF-triggered vascularization (hemoglobin content in the matrigel): suppressed significantly
[4]
  superoxide anion (O^2−)-scavenging action compared with N-acetyl-L-carnosine (in words): excellent superoxide anion (O^2−)-scavenging action compared with N-acetyl-L-carnosine
[5]
  DPPH radical-scavenging action compared with TEMPOL (in words): excellent DPPH radical-scavenging action compared with TEMPOL
[6]
  DPPH radical-scavenging action compared with N-acetyl-L-carnosine (in words): excellent DPPH radical-scavenging action compared with N-acetyl-L-carnosine
[7]
  suppression of vascularization (vascular area): suppressed vascularization significantly
[8]
  superoxide anion (O^2−)-scavenging action compared with TEMPOL (in words): excellent superoxide anion (O^2−)-scavenging action compared with TEMPOL
